Experimental data reported in ChEMBL document CHEMBL4364325, “Synthesis, pharmacological and structural studies of 5-substituted-3-(1-arylmethyl-1,2,3,6-tetrahydropyridin-4-yl)-1H-indoles as multi-target ligands of aminergic GPCRs” (Eur J Med Chem, 2019).
The source made the active and inactive calls. The rule behind the calls is not given here.

What was measured:
[1] = target: T1, 5-hydroxytryptamine receptor 2A (Homo sapiens, UniProt P28223); experiment: Displacement of [3H]ketanserin from human 5HT2A receptor expressed in HEK293 cell membranes at 10 uM measured after 30 mins relative to control
T1 sequence (P28223 whole entry): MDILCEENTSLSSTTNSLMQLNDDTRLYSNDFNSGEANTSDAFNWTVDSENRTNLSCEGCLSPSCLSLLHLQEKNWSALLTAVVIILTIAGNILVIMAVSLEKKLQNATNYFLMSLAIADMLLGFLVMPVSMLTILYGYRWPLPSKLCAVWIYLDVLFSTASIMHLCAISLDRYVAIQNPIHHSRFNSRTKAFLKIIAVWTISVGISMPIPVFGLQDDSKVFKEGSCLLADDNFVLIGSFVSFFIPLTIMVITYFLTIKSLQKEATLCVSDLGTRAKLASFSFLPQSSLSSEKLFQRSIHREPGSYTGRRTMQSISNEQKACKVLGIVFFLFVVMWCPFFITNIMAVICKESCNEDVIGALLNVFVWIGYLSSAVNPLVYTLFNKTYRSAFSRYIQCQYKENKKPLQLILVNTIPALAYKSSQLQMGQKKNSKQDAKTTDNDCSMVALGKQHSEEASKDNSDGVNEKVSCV

[2] = target: T2, 5-hydroxytryptamine receptor 1A (Homo sapiens, UniProt P08908); experiment: Displacement of [3H]8-OH-DPAT from human 5HT1A receptor expressed in HEK293 cell membranes measured after 120 mins
T2 sequence (P08908 whole entry): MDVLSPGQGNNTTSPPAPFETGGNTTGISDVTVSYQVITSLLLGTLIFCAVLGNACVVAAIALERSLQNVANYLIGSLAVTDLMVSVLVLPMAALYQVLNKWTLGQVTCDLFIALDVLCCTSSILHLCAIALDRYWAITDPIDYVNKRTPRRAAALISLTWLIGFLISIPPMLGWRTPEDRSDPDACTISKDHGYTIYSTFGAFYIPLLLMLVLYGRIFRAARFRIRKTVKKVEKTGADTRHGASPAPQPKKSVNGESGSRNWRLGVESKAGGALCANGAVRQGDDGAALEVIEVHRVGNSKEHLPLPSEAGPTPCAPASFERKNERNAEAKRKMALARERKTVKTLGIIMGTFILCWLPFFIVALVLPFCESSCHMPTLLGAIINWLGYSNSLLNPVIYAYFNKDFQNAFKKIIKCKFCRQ

D(2) dopamine receptor [3] = target: T3, D(2) dopamine receptor (Homo sapiens, UniProt P14416); experiment: Displacement of [3H]Spiperone from human D2S receptor expressed in CHOK1 cell membranes measured after 120 mins
T3 sequence (P14416 whole entry): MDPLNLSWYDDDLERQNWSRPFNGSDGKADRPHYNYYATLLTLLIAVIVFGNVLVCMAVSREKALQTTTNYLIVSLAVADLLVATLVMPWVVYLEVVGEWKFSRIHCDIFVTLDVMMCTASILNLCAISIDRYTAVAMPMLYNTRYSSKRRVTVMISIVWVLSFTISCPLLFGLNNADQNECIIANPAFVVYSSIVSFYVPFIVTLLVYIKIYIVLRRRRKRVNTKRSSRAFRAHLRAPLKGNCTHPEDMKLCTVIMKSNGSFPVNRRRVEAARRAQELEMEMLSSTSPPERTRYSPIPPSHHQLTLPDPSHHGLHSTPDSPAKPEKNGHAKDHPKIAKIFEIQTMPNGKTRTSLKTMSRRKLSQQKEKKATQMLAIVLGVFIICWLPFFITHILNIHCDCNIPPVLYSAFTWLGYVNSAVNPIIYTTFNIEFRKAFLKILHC

D(2) dopamine receptor [4] = target: T3, D(2) dopamine receptor; experiment: Antagonist activity at human D2S receptor expressed in CHOK1 cells assessed as suppression of dopamine-induced inhibition of forskolin-stimulated cAMP accumulation preincubated for 5 mins followed by dopamine and forskolin addition and measured after 10 mins by HTRF assay; type: functional, cell-based
[5] = target: T1, 5-hydroxytryptamine receptor 2A; experiment: Displacement of [3H]ketanserin from human 5HT2A receptor expressed in HEK293 cell membranes measured after 30 mins; type: cell-based
[6] = target: T4, 5-hydroxytryptamine receptor 1A (Homo sapiens) (UniProt P08908); experiment: Agonist activity at human 5HT1A receptor expressed in HEK293 cell membranes assessed as maximal inhibition of forskolin induced cAMP production incubated for 24 hrs followed by forskolin addition by HTRF assay relative to control; type: functional, cell-based
T4 sequence (whole entry): T2 sequence (P08908 whole entry)

[7] = target: T1, 5-hydroxytryptamine receptor 2A; type: functional, cell-based
Description: Antagonist activity at human 5HT2A receptor expressed in CHOK1 cells assessed as inhibition of 5-HT induced inositol phosphate production incubated for 24 hrs followed by 5-HT addition by HTRF assay

Homo sapiens = species on record: Homo sapiens; experiment: Selectivity ratio of Kb for human 5HT2A receptor expressed in CHOK1 cells to Kb for human D2S receptor expressed in CHOK1 cells; type: cell-based
D(2) dopamine receptor [8] = target: T3, D(2) dopamine receptor; experiment: Competitive antagonist activity at human D2S receptor expressed in CHOK1 cells assessed as quinpirole mediated inhibition of forskolin induced cAMP accumulation by measuring parallel rightward shifts of quinpirole concentration-response curves incubated for 10 mins by HTRF assay based Schild plot analysis; type: functional, cell-based
D(2) dopamine receptor [9] = target: T3, D(2) dopamine receptor; experiment: Agonist activity at human D2 receptor expressed in CHOK1 cells assessed as inhibition of forskolin induced cAMP production at 0.1 nM to 100 uM incubated for 10 mins followed by forskolin addition and measured after 5 mins by HTRF assay; type: functional, cell-based
[10] = target: T1, 5-hydroxytryptamine receptor 2A; experiment: Antagonist activity at human 5HT2A receptor expressed in CHOK1 cells assessed as inhibition of inositol phosphate production incubated for 24 hrs followed by 5-HT addition by Cheng-Prusoff equation analysis; type: functional, cell-based
[11] = target: T2, 5-hydroxytryptamine receptor 1A; experiment: Displacement of [3H]8-OH-DPAT from human 5HT1A receptor expressed in HEK293 cell membranes
D(1A) dopamine receptor = D(1A) dopamine receptor (Homo sapiens, UniProt P21728); experiment: Displacement of [3H]SCH23390 from human D1 receptor expressed in commercial cell membranes
Sequence of D(1A) dopamine receptor (P21728 whole entry): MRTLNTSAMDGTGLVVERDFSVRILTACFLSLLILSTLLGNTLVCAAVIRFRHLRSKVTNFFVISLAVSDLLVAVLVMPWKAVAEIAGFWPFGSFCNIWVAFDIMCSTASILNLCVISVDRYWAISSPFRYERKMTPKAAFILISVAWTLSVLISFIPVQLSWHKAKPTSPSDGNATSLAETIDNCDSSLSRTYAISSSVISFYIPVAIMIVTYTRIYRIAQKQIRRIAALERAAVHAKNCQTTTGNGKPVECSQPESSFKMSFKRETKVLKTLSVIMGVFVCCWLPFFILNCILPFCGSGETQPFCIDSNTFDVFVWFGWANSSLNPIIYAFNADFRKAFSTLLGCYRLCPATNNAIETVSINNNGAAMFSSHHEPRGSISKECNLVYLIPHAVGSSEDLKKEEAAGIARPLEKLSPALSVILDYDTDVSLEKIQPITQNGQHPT

D(2) dopamine receptor [12] = target: T3, D(2) dopamine receptor; experiment: Displacement of [3H]Spiperone from human D2S receptor expressed in CHO cell membranes
D(3) dopamine receptor = D(3) dopamine receptor (Homo sapiens, UniProt P35462); experiment: Displacement of [3H]Spiperone from human D3 receptor expressed in commercial cell membranes
Sequence of D(3) dopamine receptor (P35462 whole entry): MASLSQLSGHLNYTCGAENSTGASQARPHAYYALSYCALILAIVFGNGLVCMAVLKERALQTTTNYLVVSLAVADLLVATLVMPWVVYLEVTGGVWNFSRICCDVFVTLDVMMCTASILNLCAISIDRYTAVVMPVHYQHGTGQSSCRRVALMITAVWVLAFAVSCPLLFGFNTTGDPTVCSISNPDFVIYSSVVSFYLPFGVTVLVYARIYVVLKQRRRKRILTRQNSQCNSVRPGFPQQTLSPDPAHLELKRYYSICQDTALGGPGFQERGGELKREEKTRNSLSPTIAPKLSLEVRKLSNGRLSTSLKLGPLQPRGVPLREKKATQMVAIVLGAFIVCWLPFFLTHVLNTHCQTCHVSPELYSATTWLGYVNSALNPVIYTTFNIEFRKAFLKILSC

[13] = target: T1, 5-hydroxytryptamine receptor 2A; experiment: Displacement of [3H]ketanserin from human 5HT2A receptor expressed in CHO cell membranes
Mus musculus [14] = experiment: Antidepressant activity in Swiss mouse assessed as increase in latency time at 50 mg/kg, ip as acute administration measured during last 4 mins for 6 mins by forced swim test; type: functional, organism-based
Mus musculus [15] = experiment: Cognition enhancing effect in Swiss mouse assessed as increase in latency index at 50 mg/kg, ip as acute administration measured after 24 hrs by passive avoidance test; type: functional, organism-based
Mus musculus [16] = experiment: Antipsychotic activity in Swiss mouse assessed as decrease in amphetamine-induced hyperlocomotion at 50 mg/kg, ip pretreated for 60 mins followed by amphetamine administration and measured for 30 mins; type: functional, organism-based
[17] = Toxicity in Swiss mouse assessed as induction of motor coordination impairments at 50 mg/kg, ip measured after 60 mins by chimney test; type: organism-based; settings: in vivo, 1 h
Mus musculus [18] = experiment: Antidepressant activity in Swiss mouse assessed as decrease in immobility time at 50 mg/kg, ip as acute administration measured during last 4 mins for 6 mins by forced swim test; type: functional, organism-based
D(2) dopamine receptor [19] = target: T3, D(2) dopamine receptor; experiment: Displacement of [3H]Spiperone from human D2S receptor expressed in CHOK1 cell membranes at 10 uM measured after 120 mins relative to control

| SMILES | inhibition [1] | Ki [2] | Ki (D(2) dopamine receptor [3]) | also measured |
| --- | --- | --- | --- | --- |
| COc1cccc(CN2CC=C(c3c[nH]c4ccc(OC(C)C)cc34)CC2)c1 | 43% | 290 nM | 299 nM | – |
| COc1ccc2[nH]cc(C3=CCN(Cc4ccccc4)CC3)c2c1 | 41% | 139 nM | 62.7 nM | – |
| COc1ccc2[nH]cc(C3=CCN(Cc4ccco4)CC3)c2c1 | 15% | 195 nM | 142 nM | – |
| COc1ccc(CN2CC=C(c3c[nH]c4ccc(OC)cc34)CC2)cc1 | 48% | 134 nM | 148 nM | – |
| COc1cccc(CN2CC=C(c3c[nH]c4ccccc34)CC2)c1 | – | 243 nM | 26.9 nM | Activity (D(2) dopamine receptor [4]): Dose-dependent effect; Ki [5]: 194 nM; Emax [6]: 76%; IC50 [7]: 7980 nM; Selectivity ratio (Homo sapiens): 200; Activity (D(2) dopamine receptor [8]): Dose-dependent effect; Kb (D(2) dopamine receptor [8]): 4.95 nM; pKb (D(2) dopamine receptor [8]): 8.31; Activity (D(2) dopamine receptor [9]): inactive; Kb [10]: 803 nM |
| CC(C)Oc1ccc2[nH]cc(C3=CCN(Cc4ccccc4)CC3)c2c1 | 32% | 203 nM | 321 nM | – |
| NCCc1c[nH]c2ccc(C(N)=O)cc12 | – | – | – | Emax [6]: 95% |
| CCOc1ccc2[nH]cc(C3=CCN(Cc4ccc(OC)cc4)CC3)c2c1 | 38% | 194 nM | 132 nM | – |
| C1=C(c2c[nH]c3ccccc23)CCN(Cc2ccco2)C1 | – | 752 nM | 257 nM | Ki [5]: 173 nM |
| CCOc1ccc2[nH]cc(C3=CCN(Cc4cccs4)CC3)c2c1 | 0% | 139 nM | 166 nM | – |
| COc1ccc2[nH]cc(C3=CCN(Cc4cccs4)CC3)c2c1 | – | 157 nM | 141 nM | Ki [5]: 1890 nM |
| CCOc1ccc2[nH]cc(C3=CCN(Cc4cccc(OC)c4)CC3)c2c1 | 3% | 160 nM | 108 nM | – |
| CCOc1ccc2[nH]cc(C3=CCN(Cc4ccccc4)CC3)c2c1 | – | 220 nM | – | Ki [5]: 2100 nM |
| CC(C)Oc1ccc2[nH]cc(C3=CCN(Cc4cccs4)CC3)c2c1 | 14% | 214 nM | 465 nM | – |
| COc1ccc2[nH]cc(C3=CCN(Cc4cc(=O)[nH]c5ccccc45)CC3)c2c1 | – | – | – | Ki [11]: 125 nM; Ki (D(1A) dopamine receptor): 148 nM; Ki (D(2) dopamine receptor [12]): 58 nM; Ki (D(3) dopamine receptor): 614 nM; Ki [13]: 358 nM |
| C1=C(c2c[nH]c3ccccc23)CCN(Cc2cccs2)C1 | – | 305 nM | 71.9 nM | Activity (D(2) dopamine receptor [4]): Dose-dependent effect; Activity (Mus musculus [14]): Active; Ki [5]: 171 nM; Activity (Mus musculus [15]): Active; Activity (Mus musculus [16]): Active; Emax [6]: 67%; IC50 [7]: 2410 nM; Activity [17]: Non-Toxic; Selectivity ratio (Homo sapiens): 50; Activity (D(2) dopamine receptor [8]): Dose-dependent effect; Kb (D(2) dopamine receptor [8]): 5.06 nM; pKb (D(2) dopamine receptor [8]): 8.3; Activity (D(2) dopamine receptor [9]): inactive; Kb [10]: 238 nM; Activity (Mus musculus [18]): Active |
| COc1cccc(CN2CC=C(c3c[nH]c4ccc(OC)cc34)CC2)c1 | 24% | 135 nM | 112 nM | – |
| COc1ccc(CN2CC=C(c3c[nH]c4ccccc34)CC2)cc1 | 52% | 243 nM | 87.3 nM | – |
| CCOc1ccc2[nH]cc(C3=CCN(Cc4ccco4)CC3)c2c1 | 47% | 486 nM | – | inhibition (D(2) dopamine receptor [19]): 62% |
| COc1ccc(CN2CC=C(c3c[nH]c4ccc(OC(C)C)cc34)CC2)cc1 | 36% | 378 nM | 165 nM | – |
| CC(C)Oc1ccc2[nH]cc(C3=CCN(Cc4ccco4)CC3)c2c1 | 5% | 431 nM | – | inhibition (D(2) dopamine receptor [19]): 51% |
| C1=C(c2c[nH]c3ccccc23)CCN(Cc2ccccc2)C1 | – | 354 nM | 25.8 nM | Activity (D(2) dopamine receptor [4]): Dose-dependent effect; Ki [5]: 125 nM; Emax [6]: 89%; IC50 [7]: 2620 nM; Selectivity ratio (Homo sapiens): 80; Activity (D(2) dopamine receptor [8]): Dose-dependent effect; Kb (D(2) dopamine receptor [8]): 3.51 nM; pKb (D(2) dopamine receptor [8]): 8.45; Activity (D(2) dopamine receptor [9]): inactive; Kb [10]: 279 nM |
